One compound from patent US20020025312A1, “BIFUNCTIONAL WATER-SOLUBLE POLYMER DERIVATIVE AND COMPLEX CONTAINING IT” (priority 1997, published 2002) can be followed below.

For this data set the following is noted: 2 mg/kg as adriamycin, tail vein, male BALB/c mouse.

Method: To compare retention in blood of the respective liposomes, 2 mg/kg as the amount of adriamycin was administered from the tale vein to a male BALB/c mouse. After each period of time, the mouse was killed, and the plasma was collected. The amount of adriamycin was quantitatively analyzed by measuring fluorescence after extraction with hydrochloric acid/ethanol in accordance with a method of Konno et al. (Cancer Res. 47 4471 (1987)).
Accordingly, the amount of detected adriamycin is considered to reflect the behavior as the relevant liposome.

As for `COc1cccc2c1C(=O)c1c(O)c3c(c(O)c1C2=O)C[C@@](O)(C(=O)CO)C[C@@H]3O[C@H]1C[C@H](N)[C@H](O)[C@H](C)O1` [free adriamycin, adriamycin], the “retention in blood (concentration of adriamycin in blood plasma)” value is “disappeared from blood swiftly after the administration”.
